{"source": "patent US12233056B2", "about": "“Lysyl oxidase inhibitors for treating myeloid malignancies” (Syntara Limited, priority 2022, dated 2025)", "key": {"[1]": {"system": "erythroid differentiation (the CD235a+ and CD45− population) in the bone marrow collected from xenotransplanted mice", "assay": "Xenotransplantation model: erythroid differentiation from bone marrow of xenotransplanted mice", "assay_type": "in vivo", "details": "5-AZA 75 mg/m2 5+2 schedule, 3 cycles; PXS-5505 30 mg/kg every 48 h; 3 months; FIG. 2", "experimental": "Female immunocompromised mice (NSG and NSGS, Jackson Laboratory) aged 6-8 week old were sub-lethally irradiated (200 cGy) before intrafemoral injections with a mix of CD34+ and MSCs cells (1×10^5:5×10^5) from primary myelofibrosis patients (with grade 3 fibrosis) as described previously [Medyouf, 2014]. The mice were treated with 5-AZA (75 mg/m^2 5+2 schedule, 3 cycles in total) and/or PXS-5505 (30 mg/kg every 48 h for the duration of 5-AZA treatment) for 3 months. At endpoint human CD45+ cells were FACS-sorted from mouse bone marrow. The CD45+ cells were differentiated in the medium supplemented with 5 U/mL EPO, 100 ng/mL SCF and 5 ng/mL IL-3 for 21 days followed by flow cytometry analysis for CD235a and CD45 markers as described previously.\nFurthermore, it presents the rescue erythroid differentiation for a variety of different disease subtypes of myelodysplastic syndrome, chronic myelomonocytic leukemia and acute myeloid leukemia."}, "[2]": {"system": "in vitro co-cultured, patient derived, MSC/HSC cells", "assay": "Erythroid differentiation in in vitro co-cultured, patient derived MSC/HSC cells", "assay_type": "cell-based, human", "details": "2 μM PXS-5505, 100 nM 5-AZA daily; flow cytometry after 14 days; n=3; FIG. 1", "excerpt": "Healthy CD34+ cells were isolated from hip replacement surgery bone specimen (old CD34+ cells) or collected by iliac crest puncture of healthy volunteers (young CD34+ cells). Approval for collection of patient samples was given by the Institutional Review Board of the Medical Faculty Mannheim, University of Heidelberg, Germany, in accordance with the declaration of Helsinki. All patients were informed and provided written consent for sample collection. Mononuclear cells (MNC) were isolated from bone marrow by Ficoll density gradient. CD34+ cells from MNC were isolated using MACS enrichment columns (Miltenyi Biotec, Bergisch Gladbach, Germany) according to the manufacturer's instructions as described. Purity of the CD34+ populations were confirmed by FACS analysis to be >95%. These were then viably frozen and thawed immediately before xenotransplantation.\nMesenchymal stromal cells (MSC) were isolated from residual diagnostic material and selected via their plastic adherence properties in culture. MSC were expanded in NH-Expansion medium (Miltenyi Biotec) and cultured to a maximum of 4 passages. Ex-vivo expanded MSCs were FACS analyzed to confirm adherence to the minimal criteria for defining multipotent mesenchymal stromal cells as described in [Medyouf, 2014]. […]"}}}
{"smiles": "NC/C=C(\\F)CS(=O)(=O)c1cccc2cccnc12", "note": "[PXS-5505]", "values": [{"measurement": "erythroid differentiation (CD235a+ and CD45− population) in bone marrow from xenotransplanted mice", "setting": "[1]", "result": "could rescue erythropoiesis"}, {"measurement": "erythroid differentiation (CD235a+, CD45− cells)", "setting": "[2]", "result": "could rescue erythropoiesis"}]}
